Values quoted from earlier work as cited in patent US20120263806A1, “Uses of North American Ginseng Fractions for Treating Leukemia” (priority 2007, published 2012).

Tests used:
[1] = test system: telomerase activity of K562 cells; settings: at proper concentrations and exposure time
[2] = test system: Adriamycin (ADM)-resistant P388 leukemia cells (P388/ADM)

Row | SMILES | Cytotoxicity of the anti-cancer drugs (DAU, VBL) in P388/ADM cells [2] | also measured
1 | O=P1(N(CCCl)CCCl)NCCCO1 (stereo not shown) [CTX, cyclophosphamide] | – | Telomerase activity of K562 cells [1]: completely inhibit
2 | CC(C)=CC/C=C(/C)[C@H]1CC[C@]2(C)[C@@H]1[C@H](O)C[C@@H]1[C@@]3(C)CC[C@H](O)C(C)(C)[C@@H]3[C@@H](O)C[C@]12C [Quasipanaxatriol] | greatly enhanced | Resistance indices (ratios of IC50 values for P388/ADM and P388 parental cells) for DAU and VBL ([2]; 50 μM): decreased significantly
3 | CC(C)=CCC[C@](C)(O)[C@H]1CC[C@]2(C)[C@@H]1[C@H](O)C[C@@H]1[C@@]3(C)CC[C@H](O)C(C)(C)[C@@H]3[C@@H](O)C[C@]12C [20(8) protopanaxatriol] | greatly enhanced | –
4 | CC(C)=CCC[C@](C)(O)[C@H]1CC[C@]2(C)[C@@H]1[C@H](O)C[C@@H]1[C@@]3(C)CC[C@H](O[C@@H]4O[C@H](CO)[C@@H](O)[C@H](O)[C@H]4O)C(C)(C)[C@@H]3CC[C@]12C [ginsenoside Rh2] | greatly enhanced | –
5 | CC(C)=CCC[C@](C)(O[C@@H]1O[C@H](CO)[C@@H](O)[C@H](O)[C@H]1O)[C@H]1CC[C@]2(C)[C@@H]1[C@H](O)C[C@@H]1[C@@]3(C)CC[C@H](O)C(C)(C)[C@@H]3CC[C@]12C [compound K] | greatly enhanced | –
6 | CC(C)=CCC[C@](C)(O)[C@H]1CC[C@]2(C)[C@@H]1[C@H](O)C[C@@H]1[C@@]3(C)CC[C@H](O[C@@H]4O[C@H](CO)[C@@H](O)[C@H](O)[C@H]4O[C@@H]4O[C@H](CO)[C@@H](O)[C@H](O)[C@H]4O)C(C)(C)[C@@H]3CC[C@]12C [Rg(3)] | – | TPA-induced activation of NF-kappaβ in HL-60 cells (NF-kappaβ): inhibited
